According to US20110028686A1, “Protein binding miniature proteins” (Yale University, priority 2000, published 2011):
Several values for one entry are separate records, joined by “and”; a condition that tells them apart may be missing. Equal entries are not always repeated. Where two headings read alike, the source gives them in different places. Peptide text beside a SMILES is read from it. * marks the point of attachment. Fluorescein(5-NHCOCH2) = O=C(C*)Nc1ccc2c(c1)C(=O)OC21c2ccc(O)cc2Oc2cc(O)ccc21

Tests used:
[1] = target: T1, HisKIX (His-tagged CBP KIX domain) (Mus musculus, UniProt P45481); assay: Equilibrium fluorescence polarization, HisKIX binding; settings: 25° C.
T1 construct: The CBP KIX-coding region (residues 586 to 672) of pGEX-KT KIX 10-672; made in house; host or cells: E. coli BL21(DE3) pArg

Carbonic anhydrase II = target: T2, Carbonic anhydrase II (Homo sapiens, UniProt P00918); assay: Fluorescence polarization specificity, carbonic anhydrase II; format: binding; settings: carbonic anhydrase II as target protein; read-out: Kd CA
T2 construct: purchased Sigma
Description: (§1) Given the myriad protein surfaces present in the cell, the utility of molecules that recognize protein surfaces will depend on their ability to interact selectively with the desired protein.

CBP KIX K606A = target: T3, CBP KIX K606A (Mus musculus, UniProt P45481, K606A); assay: Equilibrium fluorescence polarization, CBP KIX variant K606A; format: binding; settings: 25° C.
T3 construct: made in house; host or cells: E. coli BL21(DE3) pArg

CBP KIX LL652-3AA = target: T4, CBP KIX LL652-3AA (Mus musculus, UniProt P45481, L652A/L653A); assay: Equilibrium fluorescence polarization, CBP KIX variant LL652-3AA; format: binding; settings: 25° C.
T4 construct: made in house; host or cells: E. coli BL21(DE3) pArg

CBP KIX Y650A = target: T5, CBP KIX Y650A (Mus musculus, UniProt P45481, Y650A); assay: Equilibrium fluorescence polarization, CBP KIX variant Y650A; format: binding; settings: 25° C.
T5 construct: made in house; host or cells: E. coli BL21(DE3) pArg

CBP KIX I660A = target: T6, CBP KIX I660A (Mus musculus, UniProt P45481, I660A); assay: Equilibrium fluorescence polarization, CBP KIX variant I660A; format: binding; settings: 25° C.
T6 construct: made in house; host or cells: E. coli BL21(DE3) pArg

CBP KIX wild type = target: T7, CBP KIX wild type (Mus musculus, UniProt P45481); assay: Equilibrium fluorescence polarization, wild type CBP KIX; format: binding; settings: 25° C.
T7 construct: made in house; host or cells: E. coli BL21(DE3) pArg

Calmodulin = target: T8, Calmodulin (Homo sapiens, UniProt P0DP23); assay: Fluorescence polarization specificity, calmodulin; format: binding; settings: calmodulin as target protein; read-out: Kd CalM
T8 construct: purchased Sigma
Description: as §1

GST-KIX = target: T9, GST-KIX (Mus musculus, UniProt P45481); assay: Fluorescence polarization, wild type GST-KIX; format: binding
T9 construct: pGST-ΔKIX(588-683) (a gift from Jennifer Nyborg); made in house; host or cells: E. coli BL21(DE3) pArg

CBP KIX E655A = target: T10, CBP KIX E655A (Mus musculus, UniProt P45481, E655A); assay: Equilibrium fluorescence polarization, CBP KIX variant E655A; format: binding; settings: 25° C.
T10 construct: made in house; host or cells: E. coli BL21(DE3) pArg

CBP KIX Q661A = target: T11, CBP KIX Q661A (Mus musculus, UniProt P45481, Q661A); assay: Equilibrium fluorescence polarization, CBP KIX variant Q661A; format: binding; settings: 25° C.
T11 construct: made in house; host or cells: E. coli BL21(DE3) pArg

CBP KIX Y658A = target: T12, CBP KIX Y658A (Mus musculus, UniProt P45481, Y658A); assay: Equilibrium fluorescence polarization, CBP KIX variant Y658A; format: binding; settings: 25° C.
T12 construct: made in house; host or cells: E. coli BL21(DE3) pArg

CBP KIX L603A = target: T13, CBP KIX L603A (Mus musculus, UniProt P45481, L603A); assay: Equilibrium fluorescence polarization, CBP KIX variant L603A; format: binding; settings: 25° C.
T13 construct: made in house; host or cells: E. coli BL21(DE3) pArg

CBP KIX Y658F = target: T14, CBP KIX Y658F (Mus musculus, UniProt P45481, Y658F); assay: Equilibrium fluorescence polarization, CBP KIX variant Y658F; format: binding; settings: 25° C.
T14 construct: made in house; host or cells: E. coli BL21(DE3) pArg

CBP KIX K662A = target: T15, CBP KIX K662A (Mus musculus, UniProt P45481, K662A); assay: Equilibrium fluorescence polarization, CBP KIX variant K662A; format: binding; settings: 25° C.
T15 construct: made in house; host or cells: E. coli BL21(DE3) pArg

CBP KIX L599A = target: T16, CBP KIX L599A (Mus musculus, UniProt P45481, L599A); assay: Equilibrium fluorescence polarization, CBP KIX variant L599A; format: binding; settings: 25° C.
T16 construct: made in house; host or cells: E. coli BL21(DE3) pArg

CBP KIX I657A = target: T17, CBP KIX I657A (Mus musculus, UniProt P45481, I657A); assay: Equilibrium fluorescence polarization, CBP KIX variant I657A; format: binding; settings: 25° C.
T17 construct: made in house; host or cells: E. coli BL21(DE3) pArg
T17 sequence (P45481 586-665 I657A limits assumed): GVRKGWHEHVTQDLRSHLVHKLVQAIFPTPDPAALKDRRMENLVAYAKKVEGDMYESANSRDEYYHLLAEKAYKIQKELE

T1 sequence (P45481 586-672): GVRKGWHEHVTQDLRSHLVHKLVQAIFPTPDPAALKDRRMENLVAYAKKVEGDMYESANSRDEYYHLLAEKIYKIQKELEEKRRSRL
T7 sequence (P45481 586-665 limits assumed): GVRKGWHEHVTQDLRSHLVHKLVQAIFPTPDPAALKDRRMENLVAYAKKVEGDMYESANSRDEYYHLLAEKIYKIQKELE
T3 sequence (P45481 586-665 K606A limits assumed): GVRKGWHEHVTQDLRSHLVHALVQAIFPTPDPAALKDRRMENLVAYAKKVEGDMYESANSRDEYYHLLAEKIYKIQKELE
T12 sequence (P45481 586-665 Y658A limits assumed): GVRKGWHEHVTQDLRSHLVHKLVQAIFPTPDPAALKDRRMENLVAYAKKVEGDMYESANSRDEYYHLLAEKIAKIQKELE
T15 sequence (P45481 586-665 K662A limits assumed): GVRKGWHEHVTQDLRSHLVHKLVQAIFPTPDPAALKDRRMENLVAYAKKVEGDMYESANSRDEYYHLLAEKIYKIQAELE
T5 sequence (P45481 586-665 Y650A limits assumed): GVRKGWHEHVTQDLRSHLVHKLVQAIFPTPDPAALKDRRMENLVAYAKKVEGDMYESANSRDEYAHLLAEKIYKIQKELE
T14 sequence (P45481 586-665 Y658F limits assumed): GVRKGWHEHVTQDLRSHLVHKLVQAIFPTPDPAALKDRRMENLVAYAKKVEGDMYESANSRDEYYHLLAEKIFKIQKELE
T4 sequence (P45481 586-665 L652A/L653A): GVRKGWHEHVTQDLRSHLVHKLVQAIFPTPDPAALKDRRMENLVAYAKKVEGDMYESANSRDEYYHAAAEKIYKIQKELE
T16 sequence (P45481 586-665 L599A limits assumed): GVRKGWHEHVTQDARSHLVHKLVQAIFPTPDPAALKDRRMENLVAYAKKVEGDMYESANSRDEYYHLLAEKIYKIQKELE
T13 sequence (P45481 586-665 L603A limits assumed): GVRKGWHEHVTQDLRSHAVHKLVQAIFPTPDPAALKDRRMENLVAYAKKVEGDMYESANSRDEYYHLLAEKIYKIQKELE
T11 sequence (P45481 586-665 Q661A limits assumed): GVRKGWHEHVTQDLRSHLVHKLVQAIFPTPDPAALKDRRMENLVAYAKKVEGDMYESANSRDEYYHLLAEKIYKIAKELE
T10 sequence (P45481 586-665 E655A limits assumed): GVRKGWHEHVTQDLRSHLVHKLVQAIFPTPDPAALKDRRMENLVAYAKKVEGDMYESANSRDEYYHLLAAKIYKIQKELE
T9 sequence (P45481 588-683): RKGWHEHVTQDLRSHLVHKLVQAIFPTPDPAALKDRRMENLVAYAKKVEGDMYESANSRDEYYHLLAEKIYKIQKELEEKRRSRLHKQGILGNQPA
T6 sequence (P45481 586-665 I660A limits assumed): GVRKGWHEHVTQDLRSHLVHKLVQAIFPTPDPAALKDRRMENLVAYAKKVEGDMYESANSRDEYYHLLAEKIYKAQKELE

Kd ([1]; fluorescein-labeled phosphopeptide, read-out: Kd HisKIX, phosphorylated peptide (P)): 624 ± 49 nM
Kd ([1]; label shows phosphorylated (P) or unphosphorylated (U) form, read-out: Kd HisKIX): 1500 to 3100 nM and 1500 nM
Kd (Carbonic anhydrase II): 79000 ± 13000 nM
Kd (CBP KIX K606A): 1200 ± 100 nM
Kd (CBP KIX LL652-3AA): 140 ± 20 nM
Kd (CBP KIX Y650A): 1300 ± 200 nM
Kd (CBP KIX I660A): 6100 ± 700 nM
Kd (CBP KIX wild type): 540 ± 60 nM
Kd (Calmodulin): ≥ 168000 nM
Kd (GST-KIX): 714 ± 128 nM
Kd (CBP KIX E655A): 1700 ± 200 nM
Kd (CBP KIX Q661A): 410 ± 60 nM
Kd (CBP KIX Y658A): 1700 ± 400 nM
Kd (CBP KIX L603A): 2500 ± 300 nM
Kd (CBP KIX Y658F): 2800 ± 400 nM
Kd (CBP KIX K662A): 1800 ± 300 nM
Kd (CBP KIX L599A): 3300 ± 300 nM
Kd (CBP KIX I657A): 3600 ± 400 nM
SMILES: CC[C@H](C)[C@H](NC(=O)CN)C(=O)N[C@@H](CO)C(=O)N[C@@H](Cc1c[nH]c2ccccc12)C(=O)N1CCC[C@H]1C(=O)N[C@H](C(=O)N[C@@H](Cc1ccccc1)C(=O)N[C@@H](CCC(=O)O)C(=O)NCC(=O)N[C@@H](CC(=O)O)C(=O)N[C@@H](CC(=O)O)C(=O)N[C@@H](C)C(=O)N1CCC[C@H]1C(=O)N[C@H](C(=O)N[C@@H](CCCNC(=N)N)C(=O)N[C@@H](CCCNC(=N)N)C(=O)N[C@@H](CC(C)C)C(=O)N[C@@H](CO)C(=O)N[C@@H](Cc1ccccc1)C(=O)N[C@@H](Cc1ccccc1)C(=O)N[C@@H](Cc1ccc(O)cc1)C(=O)N[C@H](C(=O)N[C@@H](CC(C)C)C(=O)N[C@@H](CC(C)C)C(=O)N[C@@H](CC(=O)O)C(=O)N[C@@H](CC(C)C)C(=O)N[C@@H](Cc1ccc(O)cc1)C(=O)N[C@@H](CC(C)C)C(=O)N[C@@H](CC(=O)O)C(=O)N[C@@H](C)C(=O)N1CCC[C@H]1C(=O)NCC(=O)N[C@H](C(=O)N[C@@H](CSCC(=O)Nc1ccc2c(c1)C(=O)OC21c2ccc(O)cc2Oc2cc(O)ccc21)C(N)=O)C(C)C)[C@@H](C)CC)C(C)C)[C@@H](C)O [PPKID6] (H-GISWPTFEGDDAPVRRLSFFYILLDLYLDAPGVC(Fluorescein(5-NHCOCH2))-NH2)
